Source: PubChem BioAssay AID651630 (Sanford-Burnham Center for Chemical Genomics, 2012)
Calls of active or inactive are those of the source.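 The calls were made as follows: active = lipid-stain IC50 at or below a set limit, with nuclear-stain toxicity IC50 at least five times higher; inactive = the rest.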

Legend:
[1] = test system: TAG; assay: TAG lipid buildup inhibition with viability readout – cell-based, panel, Nile Red and DAPI fluorescence, H9c2, dose response (AID 651630); details: H9c2 cells, Nile Red TAG fluorescence, oleic acid;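 also: cells exposed to compound overnight before fixation and staining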
[2] = test system: DAPI; assay: as above; details: H9c2 cells, DAPI nuclear fluorescence (cytotoxicity counter-readout), oleic acid

Row | Compound | IC50 ([1]; mean of runs) | IC50 ([1]; run 1) [µM] | IC50 ([1]; run 2) [µM] | IC50 cytotoxicity (DAPI nuclear signal decrease) ([2]; run 1) [µM] | IC50 cytotoxicity (DAPI nuclear signal decrease) ([2]; run 2) [µM] | IC50 cytotoxicity (DAPI nuclear signal decrease) ([2]; mean of runs)
1 | O=C(C[C@H]1C[C@H](C(=O)N2CCOCC2)[C@@]2(CCC3CCCC3)c3[nH]c4cc(-c5ccco5)ccc4c3CCN2C1=O)NCC12CC3CC(CC(C3)C1)C2 | 3.68 µM | 4.04 | 3.32 | > 25 | > 25 | –
2 | CC(C)C[C@H]1CNC(=S)N1CC1CCCN1C[C@H](CC(C)C)N1C[C@H](CC(C)C)N(CC2CCCCCC2)C1=S (some centres undefined) | > 25 µM (inactive) | > 25 | > 25 | > 25 | > 25 | > 25 µM (inactive)
3 | CCCCCOc1ccc(NC(=O)CSc2cccc3cccnc23)cc1 | > 25 µM (inactive) | > 25 | > 25 | > 25 | > 25 | > 25 µM (inactive)
4 | O=C(N/N=C/c1ccc(Cl)cc1)c1sccc1OCc1ccc(F)cc1 | > 25 µM (inactive) | > 25 | > 25 | > 25 | > 25 | > 25 µM (inactive)
5 | CCOC(=O)[C@@H]1[C@H]2COc3ccc(Br)cc3[C@@H]2N2C(=O)N(c3ccc(C(F)(F)F)cc3)C(=O)[C@@]12C | 3.24 µM | 2.27 | 4.21 | > 25 | > 25 | –
6 | CN1CCCC(n2nc(Cc3ccc(Cl)cc3)c3ccccc3c2=O)CC1 (centres undefined) | 18.3 µM (inactive) | 24.2 | 12.4 | > 25 | > 25 | > 25 µM (inactive)
7 | CC(C)CN(C#N)c1nc(N2CCOCC2)nc(N2CCOCC2)n1 | 20.5 µM (inactive) | 19.4 | 21.5 | > 25 | > 25 | > 25 µM (inactive)
8 | Cc1ccc(CN(C)C(=O)CN2C(=O)NC3(CCCc4ccccc43)C2=O)c(C)c1 (centres undefined) | – | 21.7 | > 25 | > 25 | > 25 | > 25 µM (inactive)
9 | COc1ccc(C#Cc2ccc3c(c2)O[C@@H](CN(C)C(=O)Nc2cccc(OC)c2)[C@H](C)CN([C@@H](C)CO)S3(=O)=O)cc1 | 8.47 µM | 7.39 | 9.55 | > 25 | > 25 | > 25 µM (inactive)
10 | C=C1c2nc3ccccc3n2C=C(c2ccc(C)cc2)N1c1ccccc1 | 16.5 µM (inactive) | 10.9 | 22.2 | > 25 | > 25 | > 25 µM (inactive)
11 | COC(=O)[C@@]1(Cc2ccccc2)[C@H]2C(=O)N(Cc3ccccc3)C(=O)[C@H]2[C@H]2CN=C(SCc3ccc(Cl)cc3)N21 | 9.75 µM | 10.4 | 9.1 | > 25 | > 25 | > 25 µM (inactive)
12 | CCCSc1ccc2nc(NC(=O)OC)[nH]c2c1 | > 25 µM (inactive) | > 25 | > 25 | > 25 | > 25 | > 25 µM (inactive)
13 | CNC(=O)c1ccc(-c2sc3nc(N4CCOCC4)c4c(c3c2N)CC(C)(C)OC4)o1 | 9.7 µM | 13.1 | 6.33 | > 25 | > 25 | > 25 µM (inactive)
14 | N/C(=N\c1nc2ccccc2o1)NC(=O)c1ccc(F)cc1 | > 25 µM (inactive) | > 25 | > 25 | > 25 | > 25 | > 25 µM (inactive)
15 | Clc1ccc(-c2csc(NNC3=NCCCCC3)n2)cc1 | – | < 0.78 | 0.875 | 23.9 | > 25 | –
16 | Cc1cc(C)n(-c2nc3c(c(=O)[nH]c(=O)n3C)n2CC(O)COc2ccc(Cl)cc2Cl)n1 (centres undefined) | – | 11.2 | > 25 | > 25 | > 25 | > 25 µM (inactive)
17 | Brc1ccc(C2=Nn3c(nnc3-c3n[nH]c4c3CCC4)SC2)cc1 | 13.8 µM | 9.45 | 18.1 | > 25 | > 25 | > 25 µM (inactive)

Row | Compound | IC50 ([1]; mean of runs) | IC50 ([1]; run 1) [µM] | IC50 ([1]; run 2) [µM] | IC50 cytotoxicity (DAPI nuclear signal decrease) ([2]; run 1) [µM] | IC50 cytotoxicity (DAPI nuclear signal decrease) ([2]; run 2) [µM] | IC50 cytotoxicity (DAPI nuclear signal decrease) ([2]; mean of runs)
18 | C=CCN1C(=O)/C(=C2\SC(N3CCOCC3)=NC2=O)c2cc(Br)ccc21 | 22.4 µM (inactive) | 22.5 | 22.4 | > 25 | > 25 | > 25 µM (inactive)
19 | Cc1ccc(-c2nc(NC(=O)c3cc(C(C)(C)C)nn3C)sc2C)cc1Cl | 5.56 µM | 6.38 | 4.74 | 20.2 | 22 | 21.1 µM (inactive)
20 | COc1ccc(-c2sc3ccc(N4CCOCC4)cc3c2C#CCCO)cc1 | > 25 µM (inactive) | > 25 | > 25 | > 25 | > 25 | > 25 µM (inactive)
21 | COc1cccc(C2c3cc4c(cc3OC(NNC(N)=O)C2C)OCO4)c1O (centres undefined) | > 25 µM (inactive) | > 25 | > 25 | > 25 | > 25 | > 25 µM (inactive)
22 | COC(=O)C1=C(C)N(Cc2ccccc2)C(=NCc2ccccc2)N[C@H]1c1ccccc1 | > 25 µM (inactive) | > 25 | > 25 | > 25 | 18.2 | –
23 | O=C(Nc1sc2c(c1-c1nc3ccccc3[nH]1)CCCC2)C1CCCC1 | 7.22 µM | 4.9 | 9.54 | > 25 | > 25 | > 25 µM (inactive)
24 | COc1cc2c(c(OC)c1OC)-c1ccc(OC)c(=O)cc1C(NC(=O)c1ccccc1)CC2 (centres undefined) | – | 12.2 | > 25 | > 25 | > 25 | > 25 µM (inactive)
25 | CC1(C(=O)NCc2cccs2)Cc2c(-c3ccc4c(c3)OCO4)ccnc2O1 (centres undefined) | > 25 µM (inactive) | > 25 | > 25 | > 25 | > 25 | > 25 µM (inactive)
26 | N#C/C(=C\c1cc([N+](=O)[O-])c(N2CCCCC2)cc1N1CCCCC1)c1nn(-c2ccccc2)c(N)c1C#N | > 25 µM (inactive) | > 25 | > 25 | > 25 | > 25 | > 25 µM (inactive)
27 | CCN(C(=O)COC(=O)c1ccc([N+](=O)[O-])o1)c1cccc2ccccc12 | – | 19.4 | > 25 | 18.1 | 21.9 | 20 µM (inactive)
28 | CCOC(=O)CSc1cccc2cccnc12 | > 25 µM (inactive) | > 25 | > 25 | > 25 | > 25 | > 25 µM (inactive)
29 | COc1cc(-c2nc3c(c(C)nn3-c3ccccc3)c3cc(OC)c(OC)cc23)ccc1O | > 25 µM (inactive) | > 25 | > 25 | > 25 | > 25 | > 25 µM (inactive)
30 | COc1ccc(C2=CC(c3ccc4c(c3)OCO4)c3c(c4ccccc4oc3=O)O2)cc1OC (centres undefined) | 18.8 µM (inactive) | 20.6 | 17 | > 25 | > 25 | > 25 µM (inactive)
31 | COc1cc(OC)c2c(-c3ccccc3)cc(=O)oc2c1C(CCN1CCCCC1)c1ccc2c(c1)OCO2 (centres undefined) | 22.9 µM (inactive) | 20.9 | 24.9 | > 25 | > 25 | > 25 µM (inactive)
32 | CCN1CCN(Cc2ccc(NC(=O)c3cc(NC(=O)C(=O)c4c[nH]c5ccccc45)cc(OC)c3)cc2C(F)(F)F)CC1 | 5.76 µM | 5.58 | 5.93 | 23.4 | 23.4 | 23.4 µM (inactive)
33 | Cc1onc(NC(=O)c2ccc([N+](=O)[O-])o2)c1Br | > 25 µM (inactive) | > 25 | > 25 | > 25 | > 25 | > 25 µM (inactive)
